Patent publication US6693216B2, “Calcium double salts” (Nutrinova Nutrition Specialties & Food Ingredients GmbH, priority 2000, dated 2004)
Like-named read-outs stand apart in the source and are kept apart here.

Assays:
Conditions in all cases: Part II, 1 g/l in apple juice pH 4.5, 25° C.
Acetic acid bacteria = test system: Acetic acid bacteria
Gram-negative bacteria = test system: Gram-negative bacteria
Bacilli = test system: Bacilli
Lactic acid bacteria = test system: Lactic acid bacteria
Yeasts = test system: Yeasts
Molds I = test system: Molds I
Molds II = test system: Molds II
Gram-positive bacteria = test system: Gram-positive bacteria
Thermophilic bacilli = test system: Thermophilic bacilli
Clostridia = test system: Clostridia
[1] = 1 day after inoculation (2.8 × 10^4)
[2] = 3 days after inoculation (2.8 × 10^4)
[3] = 7 days after inoculation (2.8 × 10^4)
[4] = 14 days after inoculation (2.8 × 10^4)
[5] = 1 day after inoculation (2.7 × 10^4)
[6] = 3 days after inoculation (2.7 × 10^4)
[7] = 7 days after inoculation (2.7 × 10^4)
[8] = 14 days after inoculation (2.7 × 10^4)
[9] = 1 day after inoculation (3.3 × 10^4)
[10] = 3 days after inoculation (3.3 × 10^4)
[11] = 7 days after inoculation (3.3 × 10^4)
[12] = 14 days after inoculation (3.3 × 10^4)
[13] = 1 day after inoculation (2.6 × 10^4)
[14] = 3 days after inoculation (2.6 × 10^4)
[15] = 7 days after inoculation (2.6 × 10^4)
[16] = 14 days after inoculation (2.6 × 10^4)
[17] = 1 day after inoculation (2.2 × 10^4)
[18] = 3 days after inoculation (2.2 × 10^4)
[19] = 7 days after inoculation (2.2 × 10^4)
[20] = 14 days after inoculation (2.2 × 10^4)
[21] = 1 day after inoculation (2.5 × 10^4)
[22] = 3 days after inoculation (2.5 × 10^4)
[23] = 7 days after inoculation (2.5 × 10^4)
[24] = 14 days after inoculation (2.5 × 10^4)
[25] = 1 day after inoculation (2.1 × 10^4)
[26] = 3 days after inoculation (2.1 × 10^4)
[27] = 7 days after inoculation (2.1 × 10^4)
[28] = 14 days after inoculation (2.1 × 10^4)
[29] = 1 day after inoculation (1.3 × 10^4)
[30] = 3 days after inoculation (1.3 × 10^4)
[31] = 7 days after inoculation (1.3 × 10^4)
[32] = 14 days after inoculation (1.3 × 10^4)

Compound	Number of surviving microorganisms per g of contaminated sample, Acetic acid bacteria (Acetic acid bacteria; [1])	Number of surviving microorganisms per g of contaminated sample, Acetic acid bacteria (Acetic acid bacteria; [2])	Number of surviving microorganisms per g of contaminated sample, Acetic acid bacteria (Acetic acid bacteria; [3])	Number of surviving microorganisms per g of contaminated sample, Acetic acid bacteria (Acetic acid bacteria; [4])	Number of surviving microorganisms per g of contaminated sample, Gram-negative bacteria (Gram-negative bacteria; [5])	Number of surviving microorganisms per g of contaminated sample, Gram-negative bacteria (Gram-negative bacteria; [6])	Number of surviving microorganisms per g of contaminated sample, Gram-negative bacteria (Gram-negative bacteria; [7])	Number of surviving microorganisms per g of contaminated sample, Gram-negative bacteria (Gram-negative bacteria; [8]) [CFU/g]	Number of surviving microorganisms per g of contaminated sample, Bacilli (Bacilli; [9])	Number of surviving microorganisms per g of contaminated sample, Bacilli (Bacilli; [10])	Number of surviving microorganisms per g of contaminated sample, Bacilli (Bacilli; [11])	Number of surviving microorganisms per g of contaminated sample, Bacilli (Bacilli; [12])	Number of surviving microorganisms per g of contaminated sample, Lactic acid bacteria (Lactic acid bacteria; [5])	Number of surviving microorganisms per g of contaminated sample, Lactic acid bacteria (Lactic acid bacteria; [6])	Number of surviving microorganisms per g of contaminated sample, Lactic acid bacteria (Lactic acid bacteria; [7])	Number of surviving microorganisms per g of contaminated sample, Lactic acid bacteria (Lactic acid bacteria; [8])	Number of surviving microorganisms per g of contaminated sample, Yeasts (Yeasts; [13])	Number of surviving microorganisms per g of contaminated sample, Yeasts (Yeasts; [14])	Number of surviving microorganisms per g of contaminated sample, Yeasts (Yeasts; [15])	Number of surviving microorganisms per g of contaminated sample, Yeasts (Yeasts; [16])	further results
CC(=O)[O-].CC(=O)[O-].[Ca+2] [Calcium Acetate]	8.4 × 10^5 CFU/g	>3.0 × 10^6 CFU/g	>3.0 × 10^6 CFU/g	1.5 × 10^6 CFU/g	1.7 × 10^4 CFU/g	1.3 × 10^4 CFU/g	2.2 × 10^3 CFU/g	<100	1.6 × 10^3 CFU/g	1.0 × 10^3 CFU/g	1.8 × 10^3 CFU/g	1.8 × 10^3 CFU/g	5.6 × 10^5 CFU/g	>3.0 × 10^6 CFU/g	>3.0 × 10^6 CFU/g	2.4 × 10^4 CFU/g	1.3 × 10^6 CFU/g	2.5 × 10^6 CFU/g	>3.0 × 10^6 CFU/g	>3.0 × 10^6 CFU/g	Number of surviving microorganisms per g of contaminated sample, Molds I (Molds I; [17]): 1.1 × 10^4 CFU/g; Number of surviving microorganisms per g of contaminated sample, Molds I (Molds I; [18]): 2.2 × 10^3 CFU/g; Number of surviving microorganisms per g of contaminated sample, Molds I (Molds I; [19]): 7.6 × 10^3 CFU/g; Number of surviving microorganisms per g of contaminated sample, Molds I (Molds I; [20]): 4.5 × 10^4 CFU/g; Number of surviving microorganisms per g of contaminated sample, Molds II (Molds II; [21]): 1.5 × 10^4 CFU/g; Number of surviving microorganisms per g of contaminated sample, Molds II (Molds II; [22]): 1.2 × 10^4 CFU/g; Number of surviving microorganisms per g of contaminated sample, Molds II (Molds II; [23]): >1.0 × 10^5 CFU/g; Number of surviving microorganisms per g of contaminated sample, Molds II (Molds II; [24]): 3.5 × 10^4 CFU/g; Number of surviving microorganisms per g of contaminated sample, Gram-positive bacteria (Gram-positive bacteria; [25]): 1.1 × 10^5 CFU/g; Number of surviving microorganisms per g of contaminated sample, Gram-positive bacteria (Gram-positive bacteria; [26]): 9.0 × 10^4 CFU/g; Number of surviving microorganisms per g of contaminated sample, Gram-positive bacteria (Gram-positive bacteria; [27]): 6.7 × 10^3 CFU/g; Number of surviving microorganisms per g of contaminated sample, Gram-positive bacteria (Gram-positive bacteria; [28]): 5.9 × 10^3 CFU/g; Number of surviving microorganisms per g of contaminated sample, Thermophilic bacilli (Thermophilic bacilli; [29]): 2.1 × 10^3 CFU/g; Number of surviving microorganisms per g of contaminated sample, Thermophilic bacilli (Thermophilic bacilli; [30]): 6.0 × 10^2 CFU/g; Number of surviving microorganisms per g of contaminated sample, Thermophilic bacilli (Thermophilic bacilli; [31]): <10 CFU/g; Number of surviving microorganisms per g of contaminated sample, Thermophilic bacilli (Thermophilic bacilli; [32]): <10 CFU/g
O=C[O-].O=C[O-].[Ca+2] [Calcium Formate]	8.7 × 10^5 CFU/g	2.5 × 10^6 CFU/g	>3.0 × 10^6 CFU/g	>3.0 × 10^6 CFU/g	1.5 × 10^4 CFU/g	3.6 × 10^3 CFU/g	2.3 × 10^3 CFU/g	75	1.7 × 10^3 CFU/g	1.5 × 10^3 CFU/g	1.4 × 10^3 CFU/g	1.7 × 10^3 CFU/g	4.4 × 10^3 CFU/g	2.5 × 10^4 CFU/g	>3.0 × 10^6 CFU/g	>3.0 × 10^6 CFU/g	7.4 × 10^5 CFU/g	1.0 × 10^6 CFU/g	>3.0 × 10^6 CFU/g	>3.0 × 10^6 CFU/g	Number of surviving microorganisms per g of contaminated sample, Clostridia (Clostridia; 1 day after inoculation (2.9 × 10^4)): 4.0 × 10^2 CFU/g; Number of surviving microorganisms per g of contaminated sample, Clostridia (Clostridia; 3 days after inoculation (2.9 × 10^4)): 2.0 × 10^2 CFU/g; Number of surviving microorganisms per g of contaminated sample, Clostridia (Clostridia; 7 days after inoculation (2.9 × 10^4)): <100 CFU/g; Number of surviving microorganisms per g of contaminated sample, Clostridia (Clostridia; 14 days after inoculation (2.9 × 10^4)): 10 CFU/g; Number of surviving microorganisms per g of contaminated sample, Molds I (Molds I; [17]): 4.1 × 10^3 CFU/g; Number of surviving microorganisms per g of contaminated sample, Molds I (Molds I; [18]): 2.9 × 10^3 CFU/g; Number of surviving microorganisms per g of contaminated sample, Molds I (Molds I; [19]): 1.9 × 10^3 CFU/g; Number of surviving microorganisms per g of contaminated sample, Molds I (Molds I; [20]): 2.6 × 10^3 CFU/g; Number of surviving microorganisms per g of contaminated sample, Molds II (Molds II; [21]): 1.0 × 10^4 CFU/g; Number of surviving microorganisms per g of contaminated sample, Molds II (Molds II; [22]): 1.5 × 10^3 CFU/g; Number of surviving microorganisms per g of contaminated sample, Molds II (Molds II; [23]): >3.0 × 10^4 CFU/g; Number of surviving microorganisms per g of contaminated sample, Molds II (Molds II; [24]): 3.9 × 10^5 CFU/g; Number of surviving microorganisms per g of contaminated sample, Gram-positive bacteria (Gram-positive bacteria; [25]): 2.2 × 10^4 CFU/g; Number of surviving microorganisms per g of contaminated sample, Gram-positive bacteria (Gram-positive bacteria; [26]): 8.9 × 10^3 CFU/g; Number of surviving microorganisms per g of contaminated sample, Gram-positive bacteria (Gram-positive bacteria; [27]): 4.6 × 10^3 CFU/g; Number of surviving microorganisms per g of contaminated sample, Gram-positive bacteria (Gram-positive bacteria; [28]): 2.0 × 10^3 CFU/g; Number of surviving microorganisms per g of contaminated sample, Thermophilic bacilli (Thermophilic bacilli; [29]): 2.3 × 10^3 CFU/g; Number of surviving microorganisms per g of contaminated sample, Thermophilic bacilli (Thermophilic bacilli; [30]): 8.0 × 10^2 CFU/g; Number of surviving microorganisms per g of contaminated sample, Thermophilic bacilli (Thermophilic bacilli; [31]): 6.0 × 10^2 CFU/g; Number of surviving microorganisms per g of contaminated sample, Thermophilic bacilli (Thermophilic bacilli; [32]): <10 CFU/g
